We go through two compounds from ChEMBL document CHEMBL5715936, “Selective Itk inhibitors block T-cell activation and murine lung inflammation” (Biochemistry, 2004).

Activity calls are given as the source filed them. No cut-off for these calls is given here.

Assay [1] concerns the target T1, Tyrosine-protein kinase TXK (Homo sapiens, UniProt P42681).
T1 sequence (P42681 whole entry): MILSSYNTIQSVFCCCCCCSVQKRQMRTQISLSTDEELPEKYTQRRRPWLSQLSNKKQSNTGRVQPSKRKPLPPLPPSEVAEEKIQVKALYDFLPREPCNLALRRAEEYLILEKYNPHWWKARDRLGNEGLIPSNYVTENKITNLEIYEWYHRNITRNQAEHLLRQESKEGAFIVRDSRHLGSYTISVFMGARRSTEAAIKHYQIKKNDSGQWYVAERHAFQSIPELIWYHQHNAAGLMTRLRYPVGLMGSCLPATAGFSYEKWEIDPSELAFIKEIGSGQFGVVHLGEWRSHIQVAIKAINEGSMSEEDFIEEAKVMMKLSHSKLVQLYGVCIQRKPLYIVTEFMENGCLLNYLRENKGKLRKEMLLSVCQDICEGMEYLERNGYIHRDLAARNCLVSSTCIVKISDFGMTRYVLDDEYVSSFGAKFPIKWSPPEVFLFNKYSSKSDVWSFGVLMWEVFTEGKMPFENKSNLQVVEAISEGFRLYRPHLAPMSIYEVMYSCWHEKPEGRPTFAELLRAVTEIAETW
Put plainly: Inhibition of Txk (unknown origin) using GST-SLP-76 as peptide substrate incubated for 10 mins in presence of [gamma-33P]ATP by scintillation counter assay.

In assay [2] the target is T2, Tyrosine-protein kinase ZAP-70 (Homo sapiens, UniProt P43403).
T2 sequence (P43403 whole entry): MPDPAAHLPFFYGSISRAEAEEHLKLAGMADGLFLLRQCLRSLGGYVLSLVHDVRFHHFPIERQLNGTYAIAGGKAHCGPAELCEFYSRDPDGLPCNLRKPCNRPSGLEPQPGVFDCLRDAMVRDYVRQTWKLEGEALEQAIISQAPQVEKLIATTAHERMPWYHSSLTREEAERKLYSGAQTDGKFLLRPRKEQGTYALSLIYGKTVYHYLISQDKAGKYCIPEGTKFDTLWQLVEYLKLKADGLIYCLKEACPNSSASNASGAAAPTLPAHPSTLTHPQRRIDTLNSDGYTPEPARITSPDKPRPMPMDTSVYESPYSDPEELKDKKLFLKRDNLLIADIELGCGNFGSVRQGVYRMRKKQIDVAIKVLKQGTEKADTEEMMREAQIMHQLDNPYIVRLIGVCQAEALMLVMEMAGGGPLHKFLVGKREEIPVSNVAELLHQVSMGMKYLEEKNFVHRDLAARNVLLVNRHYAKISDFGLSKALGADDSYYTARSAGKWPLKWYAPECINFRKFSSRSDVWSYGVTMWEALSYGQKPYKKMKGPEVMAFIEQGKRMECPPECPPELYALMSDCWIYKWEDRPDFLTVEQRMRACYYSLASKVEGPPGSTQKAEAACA
Put plainly: Inhibition of ZAP-70 (unknown origin) using GST-SLP-76 as peptide substrate incubated for 10 mins in presence of [gamma-33P]ATP by scintillation counter assay.

Assay [3] has as its target RAC-alpha serine/threonine-protein kinase (Homo sapiens, UniProt P31749). Put plainly: Inhibition of Akt1 (unknown origin) using GST-SLP-76 as peptide substrate incubated for 10 mins in presence of [gamma-33P]ATP by scintillation counter assay.
Assay [4] addresses cAMP-dependent protein kinase (PKA) (Homo sapiens, UniProt P22694+P17612+P22612). Put plainly: Inhibition of PKA (unknown origin) using GST-SLP-76 as peptide substrate incubated for 10 mins in presence of [gamma-33P]ATP by scintillation counter assay. In kind it is protein assay.
For assay [5], the target named is T3, Tyrosine-protein kinase ITK/TSK (Homo sapiens) (UniProt Q08881).
T3 sequence (whole entry): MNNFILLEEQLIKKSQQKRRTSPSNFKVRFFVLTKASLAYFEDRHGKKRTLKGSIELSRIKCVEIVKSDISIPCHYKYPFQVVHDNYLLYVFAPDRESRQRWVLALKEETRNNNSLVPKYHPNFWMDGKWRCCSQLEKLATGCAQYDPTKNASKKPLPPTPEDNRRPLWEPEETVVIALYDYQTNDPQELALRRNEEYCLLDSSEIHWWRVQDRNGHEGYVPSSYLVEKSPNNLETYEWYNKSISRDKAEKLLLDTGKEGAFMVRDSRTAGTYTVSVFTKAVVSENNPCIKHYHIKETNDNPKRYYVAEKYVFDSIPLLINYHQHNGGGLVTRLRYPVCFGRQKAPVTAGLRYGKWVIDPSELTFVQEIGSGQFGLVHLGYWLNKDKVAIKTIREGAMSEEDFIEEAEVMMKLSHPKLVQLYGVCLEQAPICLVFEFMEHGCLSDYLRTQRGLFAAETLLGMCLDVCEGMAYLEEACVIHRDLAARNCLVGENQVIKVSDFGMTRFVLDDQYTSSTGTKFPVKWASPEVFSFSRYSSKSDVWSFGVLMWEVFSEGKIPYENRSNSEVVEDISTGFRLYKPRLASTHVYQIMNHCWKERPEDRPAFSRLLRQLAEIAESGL
Put plainly: Inhibition of Itk in EGF-stimulated human A549 cells assessed as reduction in PLCgamma1 phosphorylation at <=10 uM incubated for 20 mins by Western blotting analysis. The format is cell-based. A general note: In western blotting, separated proteins are transferred to a membrane and probed.

For assay [6], the target named is Tyrosine-protein kinase BTK (Homo sapiens, UniProt Q06187). Put plainly: Inhibition of Btk (unknown origin) using GST-SLP-76 as peptide substrate incubated for 10 mins in presence of [gamma-33P]ATP by scintillation counter assay.
Chain of Tyrosine-protein kinase BTK (Q06187 whole entry): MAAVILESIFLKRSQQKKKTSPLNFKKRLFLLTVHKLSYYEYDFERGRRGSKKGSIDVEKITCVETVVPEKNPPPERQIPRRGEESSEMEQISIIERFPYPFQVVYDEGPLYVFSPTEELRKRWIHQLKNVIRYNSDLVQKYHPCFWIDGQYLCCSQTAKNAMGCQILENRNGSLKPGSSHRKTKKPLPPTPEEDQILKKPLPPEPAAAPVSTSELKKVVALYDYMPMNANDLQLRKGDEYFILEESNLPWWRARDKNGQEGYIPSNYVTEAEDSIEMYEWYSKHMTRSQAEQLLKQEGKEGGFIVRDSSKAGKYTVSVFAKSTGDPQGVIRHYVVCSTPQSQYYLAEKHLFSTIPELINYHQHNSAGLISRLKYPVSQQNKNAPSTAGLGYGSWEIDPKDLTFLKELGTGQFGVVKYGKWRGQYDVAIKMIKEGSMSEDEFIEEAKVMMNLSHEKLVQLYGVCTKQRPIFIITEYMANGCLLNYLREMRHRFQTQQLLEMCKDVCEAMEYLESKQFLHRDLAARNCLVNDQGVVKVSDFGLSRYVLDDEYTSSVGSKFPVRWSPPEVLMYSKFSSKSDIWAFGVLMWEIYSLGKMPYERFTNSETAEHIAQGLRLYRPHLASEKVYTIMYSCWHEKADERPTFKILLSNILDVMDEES
For assay [7], the target named is Tyrosine-protein kinase Fyn (Homo sapiens, UniProt P06241). Put plainly: Inhibition of Fyn (unknown origin) using GST-SLP-76 as peptide substrate incubated for 10 mins in presence of [gamma-33P]ATP by scintillation counter assay.
Chain of Tyrosine-protein kinase Fyn (P06241 whole entry): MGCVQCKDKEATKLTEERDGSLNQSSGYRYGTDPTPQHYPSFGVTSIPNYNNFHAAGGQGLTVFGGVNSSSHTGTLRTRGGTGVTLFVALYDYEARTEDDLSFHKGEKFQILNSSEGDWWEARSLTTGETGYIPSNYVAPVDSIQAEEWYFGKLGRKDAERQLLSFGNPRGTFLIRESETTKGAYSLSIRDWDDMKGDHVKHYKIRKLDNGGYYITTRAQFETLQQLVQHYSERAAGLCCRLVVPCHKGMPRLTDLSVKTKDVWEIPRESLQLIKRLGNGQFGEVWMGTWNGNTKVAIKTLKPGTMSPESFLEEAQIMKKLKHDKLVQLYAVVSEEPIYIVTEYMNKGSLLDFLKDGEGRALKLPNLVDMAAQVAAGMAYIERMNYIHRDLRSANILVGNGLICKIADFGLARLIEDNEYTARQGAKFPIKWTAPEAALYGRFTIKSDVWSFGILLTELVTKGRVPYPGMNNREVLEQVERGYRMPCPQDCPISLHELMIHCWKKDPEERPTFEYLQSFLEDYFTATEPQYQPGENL

Chain of RAC-alpha serine/threonine-protein kinase (P31749 whole entry): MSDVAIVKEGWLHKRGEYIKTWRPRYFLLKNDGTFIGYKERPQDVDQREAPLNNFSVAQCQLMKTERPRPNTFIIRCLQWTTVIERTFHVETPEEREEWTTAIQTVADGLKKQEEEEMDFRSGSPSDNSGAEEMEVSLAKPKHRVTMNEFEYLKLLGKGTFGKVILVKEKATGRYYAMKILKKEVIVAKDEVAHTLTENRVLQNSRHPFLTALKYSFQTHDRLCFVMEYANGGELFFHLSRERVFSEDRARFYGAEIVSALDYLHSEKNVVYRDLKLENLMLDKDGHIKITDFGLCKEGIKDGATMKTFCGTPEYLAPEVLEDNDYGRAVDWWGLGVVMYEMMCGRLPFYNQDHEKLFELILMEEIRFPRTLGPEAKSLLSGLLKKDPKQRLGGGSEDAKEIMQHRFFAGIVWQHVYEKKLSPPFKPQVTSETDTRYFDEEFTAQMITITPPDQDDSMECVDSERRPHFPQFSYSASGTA

Turning to `CC(=O)N1CCN(C(=O)c2cc(CSc3cnc(NC(=O)c4ccc(CNC(C)C(C)(C)C)cc4)s3)cc(C)c2C)CC1` (centres undefined), the IC50 (usually the concentration needed to halve the response being measured) was over 50 µM in assay [1]; over 50 µM in assay [2]; over 50 µM in assay [3]; over 50 µM in assay [4]; over 50 µM in assay [6]; 8.6 µM in assay [7]. In assay [5], the inhibition result was “Active”.
On to `COc1cc(C)c(Sc2cnc(NC(=O)c3ccc(CNC(C)C(C)(C)C)cc3)s2)cc1C(=O)N1CCN(C(C)=O)CC1` (centres undefined), for which the IC50 was 11 µM in assay [1]; over 50 µM in assay [2]; over 50 µM in assay [3]; over 50 µM in assay [4]; 4.1 µM in assay [6]; 1.1 µM in assay [7]. Further, the inhibition result in assay [5] is “Active”.
